From patent US7416848B2, “DNA encoding SNORF25 receptor” (H. Lundbeck A/S, priority 1999, dated 2008)

Legend:
SNORF25 receptor = target: T1, SNORF25 receptor (Rattus norvegicus, UniProt Q7TQN8); assay: IP release in SNORF25-transfected CHO cells; format: cell-based
T1 construct: the entire coding region was amplified from Rin14b cell line cDNA and rat genomic DNA; expressed in transfected cells; host or cells: CHO cells, transient (electroporation)
T1 sequence (Q7TQN8 with tags, fused parts or gaps limits assumed): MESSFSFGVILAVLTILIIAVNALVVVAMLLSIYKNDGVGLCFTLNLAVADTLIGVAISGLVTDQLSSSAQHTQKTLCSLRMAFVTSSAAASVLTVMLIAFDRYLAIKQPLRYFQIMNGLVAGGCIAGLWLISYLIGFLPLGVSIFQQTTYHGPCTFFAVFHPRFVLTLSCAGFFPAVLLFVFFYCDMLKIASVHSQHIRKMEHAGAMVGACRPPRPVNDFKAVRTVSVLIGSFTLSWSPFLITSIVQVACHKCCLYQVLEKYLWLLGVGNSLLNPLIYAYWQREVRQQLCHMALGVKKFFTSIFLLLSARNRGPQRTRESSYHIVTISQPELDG
Procedure: In a 96 well microplate format assay, cells are plated at a density of 70,000 cells per well and allowed to incubate for 24 hours. The cells are then labeled with 0.5 μCi [^3H]-myo-inositol overnight at 37° C., 5% CO2. Immediately before the assay, the medium is removed and replaced with 90 μL of PBS containing 10 mM LiCl. The plates are then incubated for 15 min at 37° C., 5% CO2. Following the incubation, the cells are challenged with agonist (10 μl/well; 10× concentration) for 30 min at 37° C., 5% CO2. The challenge is terminated by the addition of 100 μL of 50% v/v trichloroacetic acid, followed by incubation at 4° C. for greater than 30 minutes. Total IPs are isolated from the lysate by ion exchange chromatography. Briefly, the lysed contents of the wells are transferred to a Multiscreen HV filter plate (Millipore) containing Dowex AG1-X8 (200–400 mesh, formate form). The filter plates are prepared adding 100 μL of Dowex AG1-X8 suspension (50% v/v, water: resin) to each well. The filter plates are placed on a vacuum manifold to wash or elute the resin bed. Each well is first washed 2 times with 200 μl of 5 mM myo-inositol. Total [^3H]inositol phosphates are eluted with 75 μl of 1.2M ammonium formate/0.1M formic acid solution into 96-well plates. 200 μL of scintillation cocktail is added to each well, and the radioactivity is determined by liquid scintillation counting. […]

SNORF25 = target: T2, SNORF25 (Homo sapiens, UniProt Q8TDV5); assay: CFTR Cl- currents in Xenopus oocytes co-injected with SNORF25 and CFTR mRNA; format: cell-based; set-up: from linearized plasmids or PCR products containing the complete coding region of the genes; expressed in transfected cells; host or cells: Xenopus laevis oocytes injected with SNORF25 mRNA (with or without CFTR mRNA)
T2 sequence (Q8TDV5 1-335): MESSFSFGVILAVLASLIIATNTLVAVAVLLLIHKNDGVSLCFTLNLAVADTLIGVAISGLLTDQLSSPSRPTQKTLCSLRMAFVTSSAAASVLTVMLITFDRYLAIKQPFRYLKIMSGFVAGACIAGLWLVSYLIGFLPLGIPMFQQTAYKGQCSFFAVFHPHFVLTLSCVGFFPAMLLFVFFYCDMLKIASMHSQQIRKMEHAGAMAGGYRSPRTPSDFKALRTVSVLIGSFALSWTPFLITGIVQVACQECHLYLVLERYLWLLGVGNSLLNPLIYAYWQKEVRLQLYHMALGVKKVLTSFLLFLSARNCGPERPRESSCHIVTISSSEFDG
Procedure: Oocytes are harvested from Xenopus laevis and injected with mRNA transcripts as previously described (Quick and Lester, 1994; Smith et al., 1997). The test receptor of this invention and Gα subunit RNA transcripts are synthesized using the T7 polymerase (“Message Machine,” Ambion) from linearized plasmids or PCR products containing the complete coding region of the genes. Oocytes are injected with 10 ng synthetic receptor RNA and incubated for 3–8 days at 17 degrees. Three to eight hours prior to recording, oocytes are injected with 500 pg promiscuous Gα subunits mRNA in order to observe coupling to Ca^++ activated Cl^− currents.
Each of the compounds was tested at 10 μM. Oocytes expressing SNORF25 generated inward Cl^− currents, consistent with CFTR activation, in response to all four of the ligands.
The activity of SNORF25 was therefore tested in oocytes co-injected with mRNA encoding SNORF25 and mRNA encoding CFTR. In 17 out of 39 of these oocytes an inward Cl^− current (105±20 nA) was measured in response to the application of 10 μM all-trans-retinoic acid (See FIGS. 9A–9C and 10).

IP release (SNORF25 receptor): not IP release
inward Cl- current amplitude (SNORF25; 10 μM, oocytes with SNORF25 and CFTR mRNA): 105±20 nA
delay for activation of CFTR (SNORF25; SNORF25-expressing oocytes): ~10 s
Structure (SMILES): CC1=C(/C=C/C(C)=C/C=C/C(C)=C/C(=O)O)C(C)(C)CCC1 [ATRA, all-trans-retinoic acid]
